Molecules are shown by their SMILES. The source made the active and inactive calls. The rule behind the calls is not given here.

Data set [1] addresses T1, Epidermal growth factor receptor (Homo sapiens, UniProt P00533). Put plainly: Inhibition of wild-type EGFR (unknown origin) using Poly(Glu,Tyr) 4:1 as substrate after 60 mins by ELISA.
Data set [2] deals with Epidermal growth factor receptor (Homo sapiens, UniProt P00533, C797S/L858R/T790M). Put plainly: (§1) Inhibition of human C-terminal His-tagged and N-terminal GST-tagged EGFR L858R/T790M/C797S triple mutant ( 668 to 1210 amino acids) expressed in baculovirus infected Sf9 insect cells using Poly(Glu,Tyr) 4:1 as substrate after 60 mins by ELISA. A general note: An ELISA detects its analyte on a solid surface through an enzyme-linked reagent.
Chain of Epidermal growth factor receptor (Homo sapiens, UniProt P00533, C797S/L858R/T790M) (P00533 25-1210 T790M/C797S/L858R limits assumed): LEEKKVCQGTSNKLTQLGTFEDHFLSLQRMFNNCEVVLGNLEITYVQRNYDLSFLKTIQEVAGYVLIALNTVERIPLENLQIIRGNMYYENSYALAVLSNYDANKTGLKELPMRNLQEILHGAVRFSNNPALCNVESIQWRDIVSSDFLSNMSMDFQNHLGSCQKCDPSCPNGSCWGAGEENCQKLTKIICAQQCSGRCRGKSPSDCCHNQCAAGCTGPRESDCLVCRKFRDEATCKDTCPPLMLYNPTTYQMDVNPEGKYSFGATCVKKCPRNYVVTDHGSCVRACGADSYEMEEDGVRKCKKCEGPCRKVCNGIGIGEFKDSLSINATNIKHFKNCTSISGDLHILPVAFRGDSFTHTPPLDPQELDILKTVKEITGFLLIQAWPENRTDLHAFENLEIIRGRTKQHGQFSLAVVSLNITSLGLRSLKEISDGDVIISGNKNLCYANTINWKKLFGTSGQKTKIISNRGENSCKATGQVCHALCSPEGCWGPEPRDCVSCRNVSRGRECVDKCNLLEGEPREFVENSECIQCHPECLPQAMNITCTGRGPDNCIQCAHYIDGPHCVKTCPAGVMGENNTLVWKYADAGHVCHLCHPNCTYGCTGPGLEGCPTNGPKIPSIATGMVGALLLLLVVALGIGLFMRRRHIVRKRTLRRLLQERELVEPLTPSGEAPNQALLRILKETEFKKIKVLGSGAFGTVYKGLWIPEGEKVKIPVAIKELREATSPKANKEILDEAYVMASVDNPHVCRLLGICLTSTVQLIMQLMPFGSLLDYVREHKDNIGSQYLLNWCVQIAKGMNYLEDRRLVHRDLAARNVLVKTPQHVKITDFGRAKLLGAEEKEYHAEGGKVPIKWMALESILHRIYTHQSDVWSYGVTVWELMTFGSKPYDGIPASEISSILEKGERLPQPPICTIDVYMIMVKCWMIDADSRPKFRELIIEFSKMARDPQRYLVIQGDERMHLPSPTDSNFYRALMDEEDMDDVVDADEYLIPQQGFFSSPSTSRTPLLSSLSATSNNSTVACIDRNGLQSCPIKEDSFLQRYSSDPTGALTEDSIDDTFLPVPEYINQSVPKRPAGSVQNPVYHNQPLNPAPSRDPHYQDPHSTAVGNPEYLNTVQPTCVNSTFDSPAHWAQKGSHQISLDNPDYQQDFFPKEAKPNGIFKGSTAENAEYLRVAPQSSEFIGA

For data set [3], the target named is Epidermal growth factor receptor (Homo sapiens, UniProt P00533, T790M/C797S/L858R). Described as §1. The settings on record: sf9.
Chain of Epidermal growth factor receptor (Homo sapiens, UniProt P00533, T790M/C797S/L858R) (P00533 25-1210 T790M/C797S/L858R limits assumed): as above
In another data set the test system is BaF3. Put plainly: Antiproliferative activity against mouse BAF3 cells harboring EGFR L858R/T790M/C797S triple mutant after 72 hrs by resazurin dye-based fluorescence assay. The data set is classed as functional, cell-based. Particulars: BaF3, 72 h. In general terms: The colour change of resazurin is a common sign of viable cells or microbes.
Data set [4] concerns Epidermal growth factor receptor (Homo sapiens), P00533 [L858R,T790M,C797S]. Put plainly: Inhibition of EGFR L858R/T790M/C797S triple mutant (unknown origin) transfected in mouse BAF3 cells assessed as reduction in EGF-induced EGFR phosphorylation at 0.1 to 3 uM by Western blot analysis. Type of data set: cell-based.
Chain of Epidermal growth factor receptor (Homo sapiens), P00533 [L858R,T790M,C797S] (P00533 whole entry T790M/C797S/L858R): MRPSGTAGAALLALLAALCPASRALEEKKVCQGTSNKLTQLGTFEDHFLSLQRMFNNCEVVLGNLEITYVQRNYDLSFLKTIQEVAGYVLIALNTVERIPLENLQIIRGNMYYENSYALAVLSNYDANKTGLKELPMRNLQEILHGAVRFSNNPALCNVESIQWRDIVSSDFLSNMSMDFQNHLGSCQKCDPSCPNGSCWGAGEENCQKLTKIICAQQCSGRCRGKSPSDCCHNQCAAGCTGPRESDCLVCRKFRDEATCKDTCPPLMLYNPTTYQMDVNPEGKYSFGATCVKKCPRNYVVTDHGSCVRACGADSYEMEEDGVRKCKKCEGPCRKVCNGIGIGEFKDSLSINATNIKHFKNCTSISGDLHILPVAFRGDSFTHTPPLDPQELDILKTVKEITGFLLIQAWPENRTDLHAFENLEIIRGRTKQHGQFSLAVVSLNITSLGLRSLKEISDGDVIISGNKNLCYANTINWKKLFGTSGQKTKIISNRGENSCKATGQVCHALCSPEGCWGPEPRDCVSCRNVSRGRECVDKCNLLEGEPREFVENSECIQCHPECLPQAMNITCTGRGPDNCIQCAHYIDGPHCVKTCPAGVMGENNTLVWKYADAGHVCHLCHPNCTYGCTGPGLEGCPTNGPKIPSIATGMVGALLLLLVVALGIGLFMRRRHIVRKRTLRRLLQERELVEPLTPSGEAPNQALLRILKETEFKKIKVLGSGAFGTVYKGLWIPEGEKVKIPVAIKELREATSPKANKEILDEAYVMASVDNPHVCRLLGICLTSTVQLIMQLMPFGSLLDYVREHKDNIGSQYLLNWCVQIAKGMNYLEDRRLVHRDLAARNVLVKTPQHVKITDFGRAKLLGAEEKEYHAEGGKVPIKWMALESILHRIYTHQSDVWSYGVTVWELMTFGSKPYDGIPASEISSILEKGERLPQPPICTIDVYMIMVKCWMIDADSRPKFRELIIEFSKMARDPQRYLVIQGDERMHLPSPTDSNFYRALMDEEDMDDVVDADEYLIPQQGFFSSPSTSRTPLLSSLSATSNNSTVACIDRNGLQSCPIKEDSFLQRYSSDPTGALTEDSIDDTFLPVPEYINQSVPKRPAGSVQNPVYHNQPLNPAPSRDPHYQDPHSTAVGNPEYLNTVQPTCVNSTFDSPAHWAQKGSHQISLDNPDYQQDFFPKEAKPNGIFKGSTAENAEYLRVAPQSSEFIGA
The nature of data set [5]: Aqueous solubility of the compound at 2 mg at pH 7.4 after 24 hrs by LC-MS/MS analysis. The data set is classed as physicochemical. The settings on record: pH 7.4, 24 h.
A short description of data set [6]: Metabolic stability in rat liver microsomes preincubated for 5 mins followed by NADPH addition and measured after 5 to 45 mins by LC/MS analysis. The data set is classed as ADME, Microsome. (Liver microsomes are vesicles of endoplasmic reticulum, rich in cytochrome P450 enzymes.)
The nature of data set [7]: Permeability of the compound in human Caco2 cells at 10 uM after 120 mins by LC-MS/MS analysis. The settings on record: caco-2, 2 h. Type of data set: ADME, cell-based.
The target in data set [8] is T1, Epidermal growth factor receptor. Put plainly: Inhibition of wild-type EGFR (unknown origin) transfected in human A431 cells assessed as reduction in EGF-induced EGFR phosphorylation at 0.1 to 3 uM by Western blot analysis. The data set is classed as cell-based.

T1 sequence (P00533 whole entry, the tested form may be a part): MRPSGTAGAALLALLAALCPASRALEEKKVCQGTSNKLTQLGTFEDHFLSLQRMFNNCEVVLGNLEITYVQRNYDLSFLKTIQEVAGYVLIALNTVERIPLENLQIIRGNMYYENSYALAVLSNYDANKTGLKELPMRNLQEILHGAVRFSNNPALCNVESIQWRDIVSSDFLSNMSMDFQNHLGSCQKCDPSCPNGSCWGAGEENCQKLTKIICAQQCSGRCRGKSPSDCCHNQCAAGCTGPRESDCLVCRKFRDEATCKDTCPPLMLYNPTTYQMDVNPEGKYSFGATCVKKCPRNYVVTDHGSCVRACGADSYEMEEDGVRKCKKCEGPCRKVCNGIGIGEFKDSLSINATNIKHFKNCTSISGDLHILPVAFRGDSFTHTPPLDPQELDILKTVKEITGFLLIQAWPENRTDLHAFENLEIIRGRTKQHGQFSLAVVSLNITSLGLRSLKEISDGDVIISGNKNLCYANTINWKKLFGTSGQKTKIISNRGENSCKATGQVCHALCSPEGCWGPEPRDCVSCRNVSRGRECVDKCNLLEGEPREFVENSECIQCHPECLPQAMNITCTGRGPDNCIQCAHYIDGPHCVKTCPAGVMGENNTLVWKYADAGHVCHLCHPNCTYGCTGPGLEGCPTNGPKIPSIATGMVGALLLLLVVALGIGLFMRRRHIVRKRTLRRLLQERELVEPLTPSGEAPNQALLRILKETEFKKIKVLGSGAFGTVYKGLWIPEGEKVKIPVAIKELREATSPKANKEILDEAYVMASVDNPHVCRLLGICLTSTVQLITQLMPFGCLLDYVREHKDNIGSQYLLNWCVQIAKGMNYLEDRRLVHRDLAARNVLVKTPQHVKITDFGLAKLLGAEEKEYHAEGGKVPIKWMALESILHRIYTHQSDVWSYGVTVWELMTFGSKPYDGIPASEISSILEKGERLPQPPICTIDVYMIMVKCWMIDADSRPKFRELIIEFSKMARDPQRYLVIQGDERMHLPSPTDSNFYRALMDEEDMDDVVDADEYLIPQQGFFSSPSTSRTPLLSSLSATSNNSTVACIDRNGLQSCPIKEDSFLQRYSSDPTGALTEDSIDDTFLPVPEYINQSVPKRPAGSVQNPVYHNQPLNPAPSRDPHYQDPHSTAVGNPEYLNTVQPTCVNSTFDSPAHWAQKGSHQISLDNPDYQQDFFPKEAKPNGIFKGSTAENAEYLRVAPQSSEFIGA

One may read the IC50 as the concentration that inhibits the measured activity by half. As to `CCC(=O)N1CCC[C@@H](n2c(=O)c(-c3ccccc3C)c(C)c3cnc(Nc4ccc(N5CCN(C)CC5)c(C)c4)nc32)C1` (stereo in doubt; 8m-A), the values for the IC50 in data set [1] and in [2] were more than 1000 nM and 588 nM, respectively.

As for `CCC(=O)N[C@H]1CC[C@@H](n2c(=O)c(-c3ccccc3Cl)c(C)c3cnc(Nc4ccc(N5CCN(C)CC5)c(C)c4)nc32)CC1` (stereo in doubt; 8c-B), the values for the IC50 in data set [1] and in data set [2] were 169 nM and 27.7 nM, respectively.

For the molecule `CCC(=O)N1CCC[C@@H](n2c(=O)c(-c3ccc(Cl)cc3)c(C)c3cnc(Nc4ccc(N5CCN(C)CC5)c(C)c4)nc32)C1`, the IC50 in data set [1] and in data set [2] was more than 1000 nM in each case.

Take `CCC(=O)N1CCC[C@@H](n2c(=O)c(-c3ccccc3Cl)c(C)c3cnc(Nc4ccc(N5CCN(C)CC5)c(C)c4)nc32)C1` (stereo in doubt; 8f-A): the IC50 in [1] and in [2] was more than 1000 nM throughout.

For the molecule `CCC(=O)N1CCC[C@@H](n2c(=O)c(-c3cccc(Cl)c3)c(C)c3cnc(Nc4ccc(N5CCN(C)CC5)c(C)c4)nc32)C1`, the IC50 in [1] and in data set [2] was more than 1000 nM throughout.

Take `CCC(=O)N1CC[C@@H](n2c(=O)c(-c3ccccc3Cl)c(C)c3cnc(Nc4ccc(N5CCN(C)CC5)c(C)c4)nc32)C1` (stereo in doubt; 8g-B): the 50% inhibitory concentration (IC50) was more than 1000 nM in data set [1] and 81.7 nM in data set [2].

Regarding `CCC(=O)N1CCC[C@@H](n2c(=O)c(-c3ccccc3)c(C)c3cnc(Nc4ccc(N5CCN(C)CC5)c(C)c4)nc32)C1`, the IC50 in data set [1] and in data set [2] was more than 1000 nM each time.

As for `CCC(=O)N1CCC[C@@H](n2c(=O)c(-c3ccc(F)cc3Cl)c(C)c3cnc(Nc4ccc(N5CCN(C)CC5)c(C)c4)nc32)C1` (stereo in doubt; 8q-A), the 50% inhibitory concentration (IC50) was more than 1000 nM in data set [1] and 224 nM in data set [2].

On to `CCC(=O)N1CCC[C@@H](n2c(=O)c(-c3ccccc3Br)c(C)c3cnc(Nc4ccc(N5CCN(C)CC5)c(C)c4)nc32)C1` (stereo in doubt; 8l-A), for which the IC50 in [1] was more than 1000 nM; in [2] it was 498 nM.

As to `CCC(=O)N1CCC[C@@H](n2c(=O)c(-c3cc(F)ccc3Cl)c(C)c3cnc(Nc4ccc(N5CCN(C)CC5)c(C)c4)nc32)C1` (stereo in doubt; 8p-A), the IC50 is more than 1000 nM in data set [1] and 207 nM in [2].

Take `CCC(=O)N1CCC[C@@H](n2c(=O)c(-c3ccccc3Br)c(C)c3cnc(Nc4ccc(N5CCN(C)CC5)c(C)c4)nc32)C1` (stereo in doubt; 8l-B): the concentration for half-maximal inhibition (IC50) in data set [1] is more than 1000 nM; in data set [2], 56.1 nM.

Regarding `CCC(=O)N1CCC[C@H](n2c(=O)c(-c3ccccc3Cl)c(C)c3cnc(Nc4ccc(N5CCN(C)CC5)c(C)c4)nc32)C1` (stereo in doubt; 8e-A), the 50% inhibitory concentration (IC50) in [1] and in data set [2] was more than 1000 nM throughout.

Turning to `CCC(=O)N1CCC[C@@H](n2c(=O)c(-c3ccccc3C)c(C)c3cnc(Nc4ccc(N5CCN(C)CC5)c(C)c4)nc32)C1` (stereo in doubt; 8m-B), the IC50 in data set [1] was more than 1000 nM; in data set [2], 228 nM.

As to `CCC(=O)N[C@H]1CC[C@@H](n2c(=O)c(-c3ccccc3Cl)c(C)c3cnc(Nc4ccc(N5CCN(C)CC5)c(C)c4)nc32)CC1` (stereo in doubt; 8c-A), the half-inhibitory concentration (IC50) in data set [1] was more than 1000 nM; in data set [2], 519 nM.

Take `CCC(=O)N1CCC[C@H](n2c(=O)c(-c3ccccc3Cl)c(C)c3cnc(Nc4ccc(N5CCN(C)CC5)c(C)c4)nc32)C1` (stereo in doubt; 8e-B): the IC50 in data set [1] and in [3] was more than 1000 nM throughout.

Regarding `CCC(=O)N1CCC[C@@H](n2c(=O)c(-c3ccccc3Cl)c(C)c3cnc(Nc4ccc(N5CCN(C)CC5)c(C)c4)nc32)C1` (stereo in doubt; 8f-B), the half-inhibitory concentration (IC50) in [1] is more than 1000 nM; in [2], 65.1 nM.

On to `CCC(=O)N1CCC[C@@H](n2c(=O)c(-c3ccc(F)cc3Cl)c(C)c3cnc(Nc4ccc(N5CCN(C)CC5)c(C)c4)nc32)C1` (stereo in doubt; 8q-B), for which the half-inhibitory concentration (IC50) in data set [1] is more than 1000 nM; in data set [2], 88.6 nM.

As to `CCC(=O)N1CC[C@@H](n2c(=O)c(-c3ccccc3Cl)c(C)c3cnc(Nc4ccc(N5CCN(C)CC5)c(C)c4)nc32)C1` (stereo in doubt; 8g-A), the IC50 in data set [1] and in data set [2] was more than 1000 nM in each case.

Regarding `CCC(=O)N1CCC[C@@H](n2c(=O)c(-c3cccc(F)c3Cl)c(C)c3cnc(Nc4ccc(N5CCN(C)CC5)c(C)c4)nc32)C1` (stereo in doubt; 8r-B), the IC50 in the data set on BaF3 was 662 nM. The inhibition entry in data set [4] is “Active”. Also, the solubility result in data set [5] is “Soluble”. For the same molecule, the Stability result in data set [6] is reported as “Unstable”. The permeability result in data set [7] is “Permeable”. The “inhibition (INH)” value in data set [8] is recorded as “Not Active”.

As for `CCC(=O)N1CCC[C@@H](n2c(=O)c(-c3cc(F)ccc3Cl)c(C)c3cnc(Nc4ccc(N5CCN(C)CC5)c(C)c4)nc32)C1` (stereo in doubt; 8p-B), the IC50 in [1] is more than 1000 nM; in [2], 37.1 nM.

Turning to `N#Cc1ccc(O)c(-c2nc(NCc3cnccn3)c3ccccc3n2)c1`, the 50% inhibitory concentration (IC50) in data set [1] is more than 1000 nM; in data set [2] it was 38.7 nM.

These data come from ChEMBL document CHEMBL4373695, “Structure-Based Design of 5-Methylpyrimidopyridone Derivatives as New Wild-Type Sparing Inhibitors of the Epidermal Growth Factor Receptor Triple Mutant (EGFRL858R/T790M/C797S)” (J Med Chem, 2019).
